Reference: patent US12419900B2, “Induction of synthetic lethality with epigenetic therapy” (The Johns Hopkins University, priority 2017, dated 2025)

Experiments:
[1] = system: DU145 prostate cancer cells; assay: Alamar blue cell viability and growth, alisertib x decitabine dose matrix; format: cell-based; conditions: DU145; for Percent Growth Inhibition: Alisertib 0 nM
Method: DU145 prostate cancer cells and A549 lung cancer cells were treated with varying concentrations (0 nM, 10 nM, 50 nM, and 100 nM) of alisertib in addition to varying concentrations of decitabine (0 nM, 50 nM, 100 nM, and 250 nM). Representative data are shown in FIGS. 2A and 2B, as well as the Tables below. […] In each panel, a dose response of each drug alone and in combination was used in Alamar blue cell viability assays. […] Formal synergy analyses were performed using the Bliss independence score (where values greater than zero indicate greater than additive effect). […] The graph of FIG. 2A is a growth curve of the DU145 prostate cancer cells for the agents alone (decitabine and alisertib separately), a vehicle control, and the agents in combination (decitabine and alisertib together). […] Likewise, the graph of FIG. 2B is a growth curve of the A549 lung cancer cells for the agents alone (decitabine and alisertib separately), a vehicle control, and the agents in combination (decitabine and alisertib together). […] The synergy analysis of the combination of decitabine and alisertib was evaluated in a series of 18 cancer cell lines (9 prostate, 1 ovarian, 1 lung, 2 colon, 2 central nervous system, and 3 breast cancer cell lines) and 2 non-cancer cell models.

A549 lung cancer cells = assay: as above; format: cell-based; conditions: Alisertib 0 nM
Method: DU145 prostate cancer cells and A549 lung cancer cells were treated with varying concentrations (0 nM, 10 nM, 50 nM, and 100 nM) of alisertib in addition to varying concentrations of decitabine (0 nM, 50 nM, 100 nM, and 250 nM). Representative data are shown in FIGS. 2A and 2B, as well as the Tables below. […] Formal synergy analyses were performed using the Bliss independence score (where values greater than zero indicate greater than additive effect). […] The graph of FIG. 2A is a growth curve of the DU145 prostate cancer cells for the agents alone (decitabine and alisertib separately), a vehicle control, and the agents in combination (decitabine and alisertib together). […] Likewise, the graph of FIG. 2B is a growth curve of the A549 lung cancer cells for the agents alone (decitabine and alisertib separately), a vehicle control, and the agents in combination (decitabine and alisertib together). […] The synergy analysis of the combination of decitabine and alisertib was evaluated in a series of 18 cancer cell lines (9 prostate, 1 ovarian, 1 lung, 2 colon, 2 central nervous system, and 3 breast cancer cell lines) and 2 non-cancer cell models.

primary hepatocytes = assay: Cell viability and growth, alisertib x decitabine dose matrix; format: cell-based; conditions: Alisertib 0 nM
Method: The synergy analysis of the combination of decitabine and alisertib was evaluated in a series of 18 cancer cell lines (9 prostate, 1 ovarian, 1 lung, 2 colon, 2 central nervous system, and 3 breast cancer cell lines) and 2 non-cancer cell models. A final cumulative Bliss synergy score was calculated based on the sum of the synergy values from each of the 16 combinations of 0 nM, 10 nM, 50 nM, and 100 nM of alsertib together with 0 nM, 50 nM, 100 nM, and 250 nM of decitabine.

DU145 xenograft tumor = assay: In vivo xenograft study of DU145, decitabine and alisertib; design: species or system nude mice; conditions: for Fold Change in Tumor Size, Mean: DAC 0.75 mg/kg alone
Method: Using in vivo xenograft studies of the DU145 prostate cancer cell line, the effect was explored of the treatment of two dose levels of alisertib alone or in combination with decitabine using two different treatment time schedules over a period of seven weeks. First, nude mice were inoculated with DU145 cells that were allowed to incubate for 10-12 days to establish xenograft tumor. The inoculated mice were then treated concomitantly with both a high dose and a low dose of alisertib and decitabine in the first two weeks or primed with decitabine alone for two weeks followed by alisertib alone in the first cycle. The dose of decitabine was held constant at 0.75 mg/kg and given with either low-dose (15 mg/kg) or high-dose (25 mg/kg) alisertib, as indicated in FIG. 4. The cumulative number of doses of decitabine and alisertib was the same in all combination treatment arms in both schedules.

[2] = system: residual xenograft tumors; assay: KI-67 and Caspase 3A staining of residual xenograft tumors; format: in vivo, nude mice; conditions: decitabine pre-treatment experiment
From the text: The proliferative index and apoptotic fraction in residual xenograft tumors from the decitabine pre-treatment experiment was then examined. Sample cells from each of the vehicle control, decitabine pre-treatment alone, alisertib alone, and decitabine pretreatment in combination with alisertib were stained with either KI-67 or Caspase 3A.

Aurora Kinase A (AURKA) = assay: Western Blot in DU145 cells; format: cell-based; conditions: 100 nM decitabine, 100 nM alisertib
Method: Western Blot analyses for AURKA were performed on DU145 cell tissue sample treated with vehicle control; 100 nM alisertib alone; 100 nM decitabine alone; and 100 nM of decitabine in combination with 100 nM of alisertib.

DNMT3B = assay: Western Blot in DU145 cells; format: cell-based; conditions: 100 nM decitabine, 100 nM alisertib
Method: DNA methyltransferase enzymes comprise a family of enzymes including DNMT1, DNMT3A, and DNMT3B. […] In this study, Western Blot analyses for DNMT3B were performed on DU145 cell tissue sample treated with vehicle control; 100 nM alisertib alone; 100 nM decitabine alone; and 100 nM of decitabine in combination with 100 nM of alisertib.

DNMT1 = assay: Protein levels in DU145 cells (data not shown); format: cell-based
Satellite 2 sequences = assay: Bisulfite genomic sequencing of repetitive elements; format: cell-based; conditions: DU145; vehicle control 45.09%
[3] = system: retinoic acid signaling pathway; assay: pRARE-luciferase reporter of retinoic acid signaling in PC-3 cells; format: cell-based, human; conditions: KCC-08 10 μM, isotretinoin 5 μM, 72 hours, vehicle average 1.00
Method: To determine whether MBD2 protein inhibitors triggered retinoic acid signaling pathway activation, KCC-08 was administered to PC-3 human prostate cancer cells transfected with a heterologous reporter plasmid responsive to the presence of retinoic acid signaling (pRARE-luciferase), and the cells were used to assess reactivation of the retinoic acid response signaling pathway. The cancer cells were treated with a vehicle control or KCC-08 (10 μM) both with and without isotretinoin (5 μM) for 72 hours, and then assayed for luciferase reporter production.

PC-3 cancer cells = assay: Clonogenic survival; format: cell-based, human; conditions: 72 hours treatment, colonies ten days later, vehicle control 100.00, 12-27 replicates
Method: To assay for cancer clonogenic survival, PC-3 cancer cells were seeded into 6-well plates at 5,000 cells/well and allowed to attach overnight. Next, the cells were treated for 72 hours with vehicle control or KCC-08, both with and without isotretinoin, washed three times with phosphate-buffered saline, and then placed back into complete growth medium. Ten days later, colonies founded by surviving cells were detected using crystal violet staining.

PC-3 xenograft tumors = assay: PC-3 xenograft growth suppression; format: in vivo, Male Fox1-nude mice; conditions: KCC-08 i.p. 1 then 0.5 mg/kg, isotretinoin oral 30 mg/kg
Method: For cancer xenograft growth suppression, one million human PC-3 prostate cancer cells were suspended in Matrigel and inoculated into the flanks of Male Fox1-nude mice provided by Jackson Laboratory (Bar Harbor, ME). When the resultant xenograft tumors were measurable two weeks later, the tumor-bearing mice were treated with KCC-08, given by intraperitoneal infection in saline for 5 of 7 days at 1 mg/kg for week 1 and then 0.5 mg/kg for 5 of 7 days for week 2. Isotretinoin was given by oral gavage in peanut oil at 30 mg/kg for the same 5 of 7 days as the KCC-08 for weeks 1 and 2. For week 3, isotretinoin was given by oral gavage in peanut oil at 30 mg/kg for 5 of 7 days, and KCC-08 was not administered. Tumors were measured 3 times a week for 3 weeks, and the volume was estimated by using the formula 4/3*Π*width*length*depth.

Nc1ncn([C@H]2C[C@H](O)[C@@H](CO)O2)c(=O)n1 [decitabine, 5-aza-2′-deoxycytidine]
Percent Growth Inhibition ([1]; DAC 50 nM): 0.04
Percent Growth Inhibition ([1]; DAC 100 nM): 0.08
Percent Growth Inhibition ([1]; DAC 250 nM): 0.77
cell survival in tissue culture ([1]; low dose decitabine 100 nM): most of the cells survived
Percent Growth Inhibition (A549 lung cancer cells; DAC 50 nM): 0.03
Percent Growth Inhibition (A549 lung cancer cells; DAC 100 nM): 0
Percent Growth Inhibition (A549 lung cancer cells; DAC 250 nM): 0.14
Percent Growth Inhibition (primary hepatocytes; DAC 50 nM): 0.16
Percent Growth Inhibition (primary hepatocytes; DAC 100 nM): 0.30
Percent Growth Inhibition (primary hepatocytes; DAC 250 nM): 0.29
Fold Change in Tumor Size, Mean (DU145 xenograft tumor; week 0): 1
Fold Change in Tumor Size, Mean (DU145 xenograft tumor; week 1): 1.31
Fold Change in Tumor Size, Mean (DU145 xenograft tumor; week 2): 1.90
Fold Change in Tumor Size, Mean (DU145 xenograft tumor; week 3): 2.68
Fold Change in Tumor Size, Mean (DU145 xenograft tumor; week 4): 3.81
Fold Change in Tumor Size, Mean (DU145 xenograft tumor; week 5): 4.60
Fold Change in Tumor Size, Mean (DU145 xenograft tumor; week 6): 5.10
Fold Change in Tumor Size, Mean (DU145 xenograft tumor; week 7): 5.49
tumor growth (FIG. 5A) (DU145 xenograft tumor; decitabine alone, alisertib high and low dose alone, combinations concurrent or primed, low and high dose alisertib): continued to grow at a significant rate
xenograft tissue growth or survival compared to the vehicle control (DU145 xenograft tumor; single agent therapy at the doses tested (decitabine 0.75 mg/kg; alisertib 15 or 25 mg/kg)): did not significantly alter
Caspase 3A staining (apoptosis) [2]: almost no alteration
KI-67 staining (cell proliferation) [2]: almost no alteration
AURKA protein levels (Aurora Kinase A (AURKA)): significantly induce
DNMT3B levels (DNMT3B): did not significantly alter
DNMT1 levels (DNMT1): significantly reduced
percent of CpG Satellite 2 methylation (Satellite 2 sequences): 33.33%

CC1=C(/C=C/C(C)=C/C=C/C(C)=C\C(=O)O)C(C)(C)CCC1 [Isotretinoin, isotretinoin]
RAR Reporter Activity, Average [3]: 1.57
RAR Reporter Activity, Trial 1 [3]: 1.66
RAR Reporter Activity, Trial 2 [3]: 1.77
RAR Reporter Activity, Trial 3 [3]: 1.62
RAR Reporter Activity, Trial 4 [3]: 1.42
RAR Reporter Activity, Trial 5 [3]: 1.47
RAR Reporter Activity, Trial 6 [3]: 1.46
Clonogenic Survival Relative to Control, Average (PC-3 cancer cells): 96.62
Percent average xenograft tumor volume relative to baseline, Average (PC-3 xenograft tumors; Day 1): 100%
Percent average xenograft tumor volume relative to baseline, Average (PC-3 xenograft tumors; Day 4): 161.09%
Percent average xenograft tumor volume relative to baseline, Average (PC-3 xenograft tumors; Day 8): 238.81%
Percent average xenograft tumor volume relative to baseline, Average (PC-3 xenograft tumors; Day 11): 315.81%
Percent average xenograft tumor volume relative to baseline, Average (PC-3 xenograft tumors; Day 15): 394.27%
Percent average xenograft tumor volume relative to baseline, Average (PC-3 xenograft tumors; Day 18): 488.75%
Percent average xenograft tumor volume relative to baseline, Average (PC-3 xenograft tumors; Day 22): 522.19%
